Measurements as given in ChEMBL document CHEMBL1150623, “Two new triterpene esters from the twigs of Brachylaena ramiflora from the Madagascar rainforest” (J Nat Prod, 2002).
Converted amounts (≈) assume the structure as drawn. Numbered stars: 1 amine (or outer) side, 2 acyl side, 3 side chain; on linkers, the order of the positions; unused ones are H or OH. Bridge positions count the residues as written; N and C are the ends. Square brackets hold non-standard residues; d marks the D form. Peptide text beside a SMILES is read from it. I, II: the chains in the order shown. Actinocin(1to9) = Cc1c2oc3c(C)ccc(C(=O)[*:2])c3nc-2c(C(=O)[*:1])c(N)c1=O; NMeV = CN[C@H](C(=O)O)C(C)C; Sar = CNCC(=O)O

Test system: A2780
Test: Cytotoxicity against human A2780 cells
Format: functional, cell-based

Q: With `CCCCCCCCCCCCCCCC(=O)O[C@H]1CC[C@]2(C)[C@H]3CC=C4[C@@H]5CC(C)(C)CC[C@]5(C)CC[C@@]4(C)[C@]3(C)CC[C@H]2C1(C)C` as the compound, how does the IC50 read?
A: 13.4 µg/mL (≈ 20.1 µM)

Q: For `CCCCCCCCCCCCCCCC(=O)O[C@H]1CC[C@]2(C)[C@H]3CC=C4[C@@H]5CCCC(C)(C)[C@@]5(C)CC[C@@]4(C)[C@]3(C)CC[C@H]2C1(C)C` [KAIRATENYL PALMITATE], which IC50 is on record?
A: 10 µg/mL (≈ 15 µM)

Q: How did the IC50 turn out when `CC(=O)O[C@H]1CC[C@]2(C)[C@H]3CC=C4[C@@H]5CC(C)(C)CC[C@]5(C)CC[C@@]4(C)[C@]3(C)CC[C@H]2C1(C)C` [beta-AMYRIN ACETATE] was run?
A: 12.1 µg/mL

Q: For `Cc1c2oc3c(C)ccc(C(=O)N[C@@H]4C(=O)N[C@H](C(C)C)C(=O)N5CCC[C@H]5C(=O)N(C)CC(=O)N(C)[C@@H](C(C)C)C(=O)O[C@@H]4C)c3nc-2c(C(=O)N[C@@H]2C(=O)N[C@H](C(C)C)C(=O)N3CCC[C@H]3C(=O)N(C)CC(=O)N(C)[C@@H](C(C)C)C(=O)O[C@@H]2C)c(N)c1=O` [DACTINOMYCIN] (I: T[dV]P[Sar][NMeV] / II: T[dV]P[Sar][NMeV]; ester I:1-I:C, II:1-II:C; linker I:N-II:N via Actinocin(1to9)), which IC50 is on record?
A: 0.002 µg/mL (≈ 0.00159 µM)

Q: `C=C(C)[C@@H]1CC[C@]2(C)CC[C@]3(C)[C@H](CC[C@@H]4[C@@]5(C)CC[C@H](O)C(C)(C)[C@@H]5CC[C@]43C)[C@@H]12` [LUPEOL] was tested. Which IC50 did it give?
A: 16.2 µg/mL (≈ 38 µM)

Q: With `CCCCCCCCCCCCCCCC(=O)O[C@H]1CC[C@]2(C)[C@H]3CC=C4[C@@H]5[C@@H](C)[C@H](C)CC[C@@]5(C)CC[C@@]4(C)[C@]3(C)CC[C@H]2C1(C)C` as the compound, how does the IC50 read?
A: 15.4 µg/mL (≈ 23.2 µM)

Q: How did the IC50 turn out when `C=C(C)[C@H]1CC[C@]2(C)C3CC[C@@H]4[C@@]5(C)CC[C@H](OC(=O)CCCCCCCCCCCCCCC)C(C)(C)[C@@H]5CC[C@@]4(C)[C@]3(C)CC[C@@H]12` (stereo partly drawn) [HOPENYL PALMITATE] was run?
A: 11.6 µg/mL (≈ 17.4 µM)

Q: How did the IC50 turn out when `C=C(C)[C@@H]1CC[C@]2(C)CC[C@]3(C)[C@H](CC[C@@H]4[C@@]5(C)CC[C@H](OC(C)=O)C(C)(C)[C@@H]5CC[C@]43C)[C@@H]12` [LUPENYL ACETATE] was run?
A: 15 µg/mL
